Source: BindingDB's records for PubMed 9694916 (Smithkline Beecham Pharmaceuticals, 1998)

Key:
Endothelin-1 receptor = biological target: T1, Endothelin-1 receptor (Homo sapiens, UniProt P25101)
T1 sequence (P25101 whole entry): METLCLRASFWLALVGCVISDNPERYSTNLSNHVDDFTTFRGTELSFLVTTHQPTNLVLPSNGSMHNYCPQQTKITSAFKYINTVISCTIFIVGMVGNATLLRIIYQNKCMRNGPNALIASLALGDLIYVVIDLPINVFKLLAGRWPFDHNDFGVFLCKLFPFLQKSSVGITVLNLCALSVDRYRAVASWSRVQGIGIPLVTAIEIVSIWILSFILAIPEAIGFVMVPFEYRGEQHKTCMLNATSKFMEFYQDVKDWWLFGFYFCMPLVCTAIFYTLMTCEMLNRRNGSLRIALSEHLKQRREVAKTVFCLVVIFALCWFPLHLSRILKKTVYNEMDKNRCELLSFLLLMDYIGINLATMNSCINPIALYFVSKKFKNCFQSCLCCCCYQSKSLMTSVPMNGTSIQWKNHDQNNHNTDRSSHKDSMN

[1] = biological target: T2, Endothelin receptor type B (Homo sapiens, UniProt P24530)
T2 sequence (P24530 whole entry): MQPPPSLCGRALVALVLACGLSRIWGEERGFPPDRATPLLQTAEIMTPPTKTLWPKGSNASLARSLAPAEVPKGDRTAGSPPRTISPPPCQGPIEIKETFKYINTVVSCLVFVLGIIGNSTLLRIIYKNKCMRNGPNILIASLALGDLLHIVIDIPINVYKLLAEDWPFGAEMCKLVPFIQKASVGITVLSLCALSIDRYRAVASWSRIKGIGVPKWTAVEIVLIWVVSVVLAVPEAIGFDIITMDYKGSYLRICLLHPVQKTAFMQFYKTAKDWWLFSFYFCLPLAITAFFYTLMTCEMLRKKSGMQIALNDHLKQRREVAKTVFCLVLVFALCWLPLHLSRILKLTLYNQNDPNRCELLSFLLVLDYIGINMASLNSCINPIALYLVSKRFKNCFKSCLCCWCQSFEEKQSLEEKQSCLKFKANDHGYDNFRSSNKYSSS

Row | Ki (Endothelin-1 receptor) | Ki [1] | Compound
1 | 0.13 nM | 500 nM | CCCCn1ncc(/C=C(\Cc2cc3c(cc2OC)OCO3)C(=O)O)c1-c1ccc(OC)cc1OCc1ccccc1C(=O)O [SB-234551]
2 | 1.5 nM | 150 nM | CCCOc1ccc2c(c1)[C@@H](c1ccc(OC)cc1OCCO)[C@H](C(=O)O)[C@H]2c1ccc2c(c1)OCO2 [Enrasentan]
3 | 0.4 nM | 21 nM | CCCOc1ccc2c(c1)[C@@H](c1ccc(OC)cc1OCC(=O)O)[C@H](C(=O)O)[C@H]2c1ccc2c(c1)OCO2 [(1S,2R,3S)-1-Benzo[1,3]dioxol-5-yl-3-(2-carboxymethoxy-4-methoxy-phenyl)-5-propoxy-indan-2-carboxylic acid]
